Assays:
Format in all cases: cell-based
[1] = target: T1, human TLR9 (Homo sapiens, UniProt Q9NR96); assay: TLR9 inhibition reporter assay (HEK-Blue cells, SEAP reporter); details: HEK-Blue cells overexpressing human TLR9; stimulated with ODN2006 5 nM; SEAP read after 22 hour; dose range 0.05 nM-50 μM
T1 construct: host or cells: HEK-Blue cells
T1 sequence (Q9NR96 26-1032): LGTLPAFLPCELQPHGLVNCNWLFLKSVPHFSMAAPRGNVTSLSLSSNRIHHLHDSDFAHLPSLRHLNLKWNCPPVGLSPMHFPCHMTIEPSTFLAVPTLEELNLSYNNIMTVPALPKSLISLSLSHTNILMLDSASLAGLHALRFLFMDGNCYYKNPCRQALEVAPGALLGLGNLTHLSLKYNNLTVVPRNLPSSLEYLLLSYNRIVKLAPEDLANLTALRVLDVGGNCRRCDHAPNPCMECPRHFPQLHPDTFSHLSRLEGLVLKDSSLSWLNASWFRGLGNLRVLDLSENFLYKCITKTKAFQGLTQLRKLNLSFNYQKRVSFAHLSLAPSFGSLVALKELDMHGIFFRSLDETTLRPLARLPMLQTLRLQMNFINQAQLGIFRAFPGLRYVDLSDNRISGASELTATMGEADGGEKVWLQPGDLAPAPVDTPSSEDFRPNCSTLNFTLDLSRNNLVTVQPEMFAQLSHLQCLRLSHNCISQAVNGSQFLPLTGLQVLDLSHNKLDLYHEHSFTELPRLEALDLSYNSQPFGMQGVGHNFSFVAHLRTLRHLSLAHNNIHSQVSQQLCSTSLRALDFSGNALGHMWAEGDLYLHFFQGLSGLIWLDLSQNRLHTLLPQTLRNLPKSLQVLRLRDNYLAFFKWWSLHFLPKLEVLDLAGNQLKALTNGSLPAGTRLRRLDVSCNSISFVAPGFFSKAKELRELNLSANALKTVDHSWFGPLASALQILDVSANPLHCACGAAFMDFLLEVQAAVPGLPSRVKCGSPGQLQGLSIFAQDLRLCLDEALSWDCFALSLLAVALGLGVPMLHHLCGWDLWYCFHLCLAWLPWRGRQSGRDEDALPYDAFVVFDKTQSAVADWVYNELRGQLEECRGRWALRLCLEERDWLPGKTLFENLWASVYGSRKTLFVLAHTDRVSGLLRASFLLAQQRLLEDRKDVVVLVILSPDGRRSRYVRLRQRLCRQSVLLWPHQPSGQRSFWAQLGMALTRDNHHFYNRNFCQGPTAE
Experimental: (§1) HEK-Blue™-cells (Invivogen) overexpressing human TLR7, TLR8 or TLR9 receptors were used for screening inhibitors of these receptors using an inducible SEAP (secreted embryonic alkaline phosphatase) reporter gene under the control of the IFN-β minimal promoter fused to five NF-κB and AP-1-binding sites. Briefly, cells are seeded into Greiner 384 well plates (15000 cells per well for TLR7, 20,000 for TLR8 and 25,000 for TLR9) and then treated with test compounds in DMSO to yield a final dose response concentration range of 0.05 nM-50 μM. After a 30 minute compound pre-treatment at room temperature, the cells are then stimulated with a TLR7 ligand (gardiquimod at a final concentration of 7.5 μM), TLR8 ligand (R848 at a final concentration of 15.9 μM) or TLR9 ligand (ODN2006 at a final concentration of 5 nM) to activate NF-κB and AP-1 which induce the production of SEAP. After a 22 hour incubation at 37° C., 5% CO2, SEAP levels are determined with the addition of HEK-Blue™ Detection reagent (Invivogen), a cell culture medium that allows for detection of SEAP, according to manufacturer's specifications. The percent inhibition is determined as the % reduction in the HEK-Blue signal present in wells treated with agonist plus DMSO alone compared to wells treated with a known inhibitor.

[2] = target: T2, human TLR7 (Homo sapiens, UniProt Q9NYK1); assay: TLR7 inhibition reporter assay (HEK-Blue cells, SEAP reporter); details: HEK-Blue cells overexpressing human TLR7; stimulated with gardiquimod 7.5 μM; SEAP read after 22 hour; dose range 0.05 nM-50 μM
T2 construct: host or cells: HEK-Blue cells
T2 sequence (Q9NYK1 27-1049): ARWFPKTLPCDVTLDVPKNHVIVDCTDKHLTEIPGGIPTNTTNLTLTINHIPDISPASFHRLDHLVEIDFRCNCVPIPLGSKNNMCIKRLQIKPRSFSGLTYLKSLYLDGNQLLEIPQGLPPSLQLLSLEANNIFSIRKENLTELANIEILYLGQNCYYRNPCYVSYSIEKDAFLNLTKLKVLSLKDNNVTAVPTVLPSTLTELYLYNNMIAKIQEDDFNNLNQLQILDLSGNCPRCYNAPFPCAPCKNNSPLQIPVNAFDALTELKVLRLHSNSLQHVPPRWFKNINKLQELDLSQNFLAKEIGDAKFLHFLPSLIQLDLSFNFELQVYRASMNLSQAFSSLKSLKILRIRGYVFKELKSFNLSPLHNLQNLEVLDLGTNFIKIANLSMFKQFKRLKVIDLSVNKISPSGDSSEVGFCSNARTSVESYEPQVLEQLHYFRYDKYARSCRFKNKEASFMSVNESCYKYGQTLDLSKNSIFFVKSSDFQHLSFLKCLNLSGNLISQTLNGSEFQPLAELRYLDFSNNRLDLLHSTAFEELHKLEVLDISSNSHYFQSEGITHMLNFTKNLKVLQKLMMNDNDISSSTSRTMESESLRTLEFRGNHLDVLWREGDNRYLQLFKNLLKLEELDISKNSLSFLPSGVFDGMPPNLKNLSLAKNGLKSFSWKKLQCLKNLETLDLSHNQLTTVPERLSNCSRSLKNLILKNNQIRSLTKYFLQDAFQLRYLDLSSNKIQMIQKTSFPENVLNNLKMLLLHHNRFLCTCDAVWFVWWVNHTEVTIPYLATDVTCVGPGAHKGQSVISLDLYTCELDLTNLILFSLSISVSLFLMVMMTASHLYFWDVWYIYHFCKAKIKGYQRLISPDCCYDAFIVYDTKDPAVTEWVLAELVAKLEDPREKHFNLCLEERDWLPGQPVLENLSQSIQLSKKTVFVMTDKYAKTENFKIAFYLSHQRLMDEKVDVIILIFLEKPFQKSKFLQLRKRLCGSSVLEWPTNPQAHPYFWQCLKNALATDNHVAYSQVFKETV
Experimental: as §1

[3] = target: T3, human TLR8 (Homo sapiens, UniProt Q9NR97); assay: TLR8 inhibition reporter assay (HEK-Blue cells, SEAP reporter); details: HEK-Blue cells overexpressing human TLR8; stimulated with R848 15.9 μM; SEAP read after 22 hour; dose range 0.05 nM-50 μM
T3 construct: host or cells: HEK-Blue cells
T3 sequence (Q9NR97 27-1041): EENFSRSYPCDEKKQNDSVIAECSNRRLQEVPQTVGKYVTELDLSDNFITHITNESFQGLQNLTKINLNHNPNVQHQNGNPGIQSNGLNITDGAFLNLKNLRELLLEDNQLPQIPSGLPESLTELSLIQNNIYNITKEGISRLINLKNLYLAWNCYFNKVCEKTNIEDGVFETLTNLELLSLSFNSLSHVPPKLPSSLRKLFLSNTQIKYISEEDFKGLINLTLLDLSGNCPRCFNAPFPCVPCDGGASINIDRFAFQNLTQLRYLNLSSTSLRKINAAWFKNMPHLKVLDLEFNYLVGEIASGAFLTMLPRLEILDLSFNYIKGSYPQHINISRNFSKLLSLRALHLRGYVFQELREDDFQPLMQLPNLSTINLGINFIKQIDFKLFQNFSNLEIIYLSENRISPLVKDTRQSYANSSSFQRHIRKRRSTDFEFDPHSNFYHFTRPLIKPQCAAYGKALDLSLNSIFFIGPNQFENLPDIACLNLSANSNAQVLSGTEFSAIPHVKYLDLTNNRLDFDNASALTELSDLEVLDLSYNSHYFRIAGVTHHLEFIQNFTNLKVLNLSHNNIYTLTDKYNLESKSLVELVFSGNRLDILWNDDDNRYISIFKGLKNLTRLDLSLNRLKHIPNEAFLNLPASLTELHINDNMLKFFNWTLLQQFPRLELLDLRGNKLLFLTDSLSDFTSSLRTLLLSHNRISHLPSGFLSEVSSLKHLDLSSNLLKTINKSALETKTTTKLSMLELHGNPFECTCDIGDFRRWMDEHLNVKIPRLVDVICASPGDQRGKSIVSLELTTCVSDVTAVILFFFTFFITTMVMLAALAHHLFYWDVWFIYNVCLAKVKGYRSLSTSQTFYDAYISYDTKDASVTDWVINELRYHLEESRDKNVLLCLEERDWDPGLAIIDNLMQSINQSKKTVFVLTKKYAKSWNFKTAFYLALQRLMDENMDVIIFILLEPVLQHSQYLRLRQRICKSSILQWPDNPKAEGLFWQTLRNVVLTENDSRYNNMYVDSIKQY
Experimental: as §1

SMILES | IC50 [1] | IC50 [2] | IC50 [3]
CC(C)N1CCN(c2ccc(-c3ccc4[nH]c(=O)c(-c5ccc(S(C)(=O)=O)cc5)cc4c3)cc2)CC1 [Example 4, 3-(4-methanesulfonylphenyl)-6-{4-[4-(propan-2-yl)piperazin-1-yl]phenyl}-1,2-dihydroquinolin-2-one] | 206 nM | 4.69 µM | ≥ 50 µM
CC(=O)Nc1ccc(-c2cc3cc(-c4ccc(N5CCN(C(C)C)CC5)cc4)ccc3[nH]c2=O)cc1 [Example 5, N-[4-(2-oxo-6-{4-[4-(propan-2-yl)piperazin-1-yl]phenyl}-1,2-dihydroquinolin-3-yl)phenyl]acetamide] | 59 nM | 3.87 µM | ≥ 50 µM
CC(C)N1CCN(c2ccc(-c3ccc4[nH]c(=O)c(-c5ccc(-n6cnnn6)cc5)cc4c3)cc2)CC1 [Example 7, 3-(4-(1H-tetrazol-1-yl)phenyl)-6-(4-(4-isopropylpiperazin-1-yl)phenyl)quinolin-2(1H)-one] | 80 nM | 1.13 µM | ≥ 50 µM
CC(C)N1CCN(c2ccc(-c3ccc4[nH]c(=O)c(-c5cccc(NS(C)(=O)=O)c5)cc4c3)cc2)CC1 [Example 8, N-[3-(2-oxo-6-{4-[4-(propan-2-yl)piperazin-1-yl]phenyl}-1,2-dihydroquinolin-3-yl)phenyl]methanesulfonamide] | 87 nM | 0.299 µM | 1.82 µM
CC(C)N1CCN(c2ccc(-c3ccc4[nH]c(=O)c(-c5ccc(N(C)C)cc5)cc4c3)cc2)CC1 [Example 9, 3-[4-(dimethylamino)phenyl]-6-{4-[4-(propan-2-yl)piperazin-1-yl]phenyl}-1,2-dihydroquinolin-2-one] | 96 nM | 3.07 µM | 13.7 µM
CC(C)N1CCN(c2ccc(-c3ccc4[nH]c(=O)c(-c5ccc(S(N)(=O)=O)cc5)cc4c3)cc2)CC1 [Example 11, 4-(2-oxo-6-{4-[4-(propan-2-yl)piperazin-1-yl]phenyl}-1,2-dihydroquinolin-3-yl) benzene-1-sulfonamide] | 119 nM | ≥ 50 µM | 2.05 µM
CC(C)N1CCN(c2ccc(-c3ccc4[nH]c(=O)c(-c5ccc(C(=O)N(C)C6COC6)cc5)cc4c3)cc2)CC1 [Example 13, N-methyl-N-(oxetan-3-yl)-4-(2-oxo-6-{4-[4-(propan-2-yl)piperazin-1-yl]phenyl}-1,2-dihydroquinolin-3-yl)benzamide] | 122 nM | 4.89 µM | ≥ 50 µM
CC(C)N1CCC(c2ccc(-c3ccc4[nH]c(=O)c(-c5ccc(N(C)C)cc5)cc4c3)cc2)CC1 [Example 88, 3-[4-(dimethylamino)phenyl]-6-{4-[1-(propan-2-yl)piperidin-4-yl]phenyl}-1,2-dihydroquinolin-2-one] | 449 nM |  | 0.118 µM

Now from value to compound:

IC50 [1] | IC50 [2] | IC50 [3] | SMILES
79 nM | 3.83 µM | ≥ 50 µM | CC(C)N1CCN(c2ccc(-c3ccc4[nH]c(=O)c(-c5ccccn5)cc4c3)cc2)CC1 [Example 6, 6-{4-[4-(propan-2-yl)piperazin-1-yl]phenyl}-3-(pyridin-2-yl)-1,2-dihydroquinolin-2-one]
118 nM | ≥ 50 µM | ≥ 50 µM | CC(C)N1CCN(c2ccc(-c3ccc4[nH]c(=O)c(-c5cc(F)c(F)cc5F)cc4c3)cc2)CC1 [Example 10, 6-{4-[4-(propan-2-yl)piperazin-1-yl]phenyl}-3-(2,4,5-trifluorophenyl)-1,2-dihydroquinolin-2-one]
121 nM | 3 µM | 7.56 µM | CC(C)N1CCN(c2ccc(-c3ccc4[nH]c(=O)c(-c5ccc(C#N)cc5)cc4c3)cc2)CC1 [Example 12, 4-(2-oxo-6-{4-[4-(propan-2-yl)piperazin-1-yl]phenyl}-1,2-dihydroquinolin-3-yl)benzonitrile]
259 nM | 0.459 µM | 1.03 µM | CC(C)N1CCN(c2ccc(-c3ccc4[nH]c(=O)c(-c5ccccc5C#N)cc4c3)cc2)CC1 [Example 15, 2-(2-oxo-6-{4-[4-(propan-2-yl)piperazin-1-yl]phenyl}-1,2-dihydroquinolin-3-yl)benzonitrile]
307 nM | 1.08 µM |  | CC(C)N1CCN(c2ccc(-c3ccc4[nH]c(=O)c(-c5cncnc5)cc4c3)cc2)CC1 [Example 34, 6-{4-[4-(propan-2-yl)piperazin-1-yl]phenyl}-3-(pyrimidin-5-yl)-1,2-dihydroquinolin-2-one]

Reference: patent US20260183275A1, “SUBSTITUTED QUINOLONE COMPOUNDS USEFUL AS INHIBITORS OF TLR9” (Bristol-Myers Squibb Company, priority 2022, published 2026)
